Experimental data reported in the supplement of paper PMC10307832.

Tests used:
Assay in all cases: relative viability (nuclei count vs DMSO), 5 days (fraction); higher = more cells survive
[1] = compound: CCN1C(=O)C2=CC(=C(N=C2N(C1=O)C3CC3)N)C(=O)N + CC1(C)CCC(c2ccc(Cl)cc2)=C(CN2CCN(c3ccc(C(=O)NS(=O)(=O)c4ccc(N[C@H](CCN5CCOCC5)CSc5ccccc5)c(S(=O)(=O)C(F)(F)F)c4)cc3)CC2)C1 [Navitoclax] (partner 0.5 µM)
Outline: (§1)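 A single step with final 0.05% Triton X-100, 1% formaldehyde and 1 ug/ml Hoechst fixed the cells and stained nuclei 5 days after treatment. Lung cancer cell lines in 1536-well plates had been treated by pin tool the day after seeding with one drug alone or a fixed anchor-drug dose plus five library-drug doses (not always all listed) in √10 steps, and nuclei were counted on 4× images. Relative viability is the ratio of nuclei in treated wells to nuclei in vehicle wells, taken as the median of duplicate plates.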

[2] = compound: CCN1C(=O)C2=CC(=C(N=C2N(C1=O)C3CC3)N)C(=O)N + Cc1cc(Nc2cc(N3CCN(C)CC3)nc(Sc3ccc(NC(=O)C4CC4)cc3)n2)n[nH]1 [Tozasertib] (partner 0.1 µM)
Outline: as §1

[3] = compound: CCN1C(=O)C2=CC(=C(N=C2N(C1=O)C3CC3)N)C(=O)N + Cc1nc(Nc2ncc(C(=O)Nc3c(C)cccc3Cl)s2)cc(N2CCN(CCO)CC2)n1 [Dasatinib] (partner 0.075 µM)
Outline: as §1

[4] = compound: CCN1C(=O)C2=CC(=C(N=C2N(C1=O)C3CC3)N)C(=O)N + Nc1ncn([C@H]2C[C@H](O)[C@@H](CO)O2)c(=O)n1 [Decitabine] (partner 2 µM)
Outline: as §1

[5] = compound: CCN1C(=O)C2=CC(=C(N=C2N(C1=O)C3CC3)N)C(=O)N + COc1cc2c(Oc3ccc(NC(=O)C4(C(=O)Nc5ccc(F)cc5)CC4)cc3F)ccnc2cc1OCCCN1CCOCC1 [Foretinib] (partner 0.25 µM)
Outline: as §1

Row | Cell Line | relative viability ([1]; first compound 0.253 µM) | relative viability ([1]; first compound 0.8 µM) | relative viability ([1]; first compound 2.53 µM) | relative viability ([1]; first compound 8 µM) | relative viability ([2]; first compound 0.253 µM) | relative viability ([2]; first compound 0.8 µM) | relative viability ([2]; first compound 2.53 µM) | relative viability ([2]; first compound 8 µM) | relative viability ([3]; first compound 0.253 µM) | relative viability ([3]; first compound 0.8 µM) | relative viability ([3]; first compound 2.53 µM) | relative viability ([3]; first compound 8 µM) | relative viability ([4]; first compound 0.253 µM) | relative viability ([4]; first compound 0.8 µM) | relative viability ([4]; first compound 2.53 µM) | relative viability ([4]; first compound 8 µM) | relative viability ([5]; first compound 0.253 µM) | relative viability ([5]; first compound 0.8 µM) | relative viability ([5]; first compound 2.53 µM) | relative viability ([5]; first compound 8 µM)
1 | LXF-289 | 0.93 | 0.951 | 1.01 | 0.95 | 0.127 | 0.26 | 0.206 | 0.201 | 0.229 | 0.348 | 0.28 | 0.212 | 0.345 | 0.37 | 0.346 | 0.336 | 0.995 | 1 | 0.966 | 1
2 | NCI-H23 | 0.772 | 0.924 | 0.659 | 0.769 | 0.415 | 0.352 | 0.352 | 0.335 | 0.786 | 0.746 | 0.762 | 0.656 | 0.315 | 0.305 | 0.289 | 0.32 | 0.942 | 1.13 | 1.07 | 1.11
3 | NCI-H322M | 1.06 | 1.12 | 1.14 | 1.13 | 0.526 | 0.475 | 0.493 | 0.511 | 0.275 | 0.224 | 0.256 | 0.248 | 0.697 | 0.728 | 0.673 | 0.719 | 0.953 | 0.958 | 0.988 | 1.1
4 | NCI-H441 | 0.768 | 0.482 | 0.64 | 0.649 | 0.619 | 0.571 | 0.54 | 0.458 | 0.734 | 0.585 | 0.728 | 0.683 | 0.305 | 0.244 | 0.265 | 0.258 | 0.925 | 0.82 | 0.956 | 0.995
5 | NCI-H460 | 1.17 | 1.08 | 1.07 | 1.14 | 0.436 | 0.455 | 0.33 | 0.112 | 0.5 | 0.541 | 0.592 | 0.452 | 0.454 | 0.462 | 0.524 | 0.301 | 0.992 | 1.04 | 0.979 | 0.943
6 | NCI-H520 | 1.04 | 1.22 | 1.02 | 1.41 | 0.426 | 0.397 | 0.382 | 0.451 | 0.17 | 0.222 | 0.222 | 0.31 | 0.483 | 0.48 | 0.474 | 0.428 | 0.544 | 0.709 | 0.827 | 0.899
7 | NCI-H596 | 1.07 | 0.904 | 0.999 | 1.17 | 0.968 | 0.944 | 0.69 | 1.1 | 0.625 | 0.569 | 0.519 | 0.548 |  | 0.925 | 0.955 | 0.951 | 0.956 | 0.94 | 0.788 | 0.962
8 | NCI-H647 | 1.18 | 1.25 | 1.14 | 1.08 | 0.33 | 0.304 | 0.273 | 0.277 | 0.182 | 0.176 | 0.172 | 0.16 | 0.444 | 0.411 | 0.458 | 0.433 | 1.23 | 1.14 | 1.07 | 1.23
9 | NCI-H727 | 0.463 | 0.51 | 0.484 | 0.596 | 0.534 | 0.71 | 0.608 | 0.603 | 0.352 | 0.323 | 0.333 | 0.422 | 0.882 | 0.842 | 0.802 | 0.676 | 1.06 | 0.889 | 0.888 | 1.23
10 | NCI-H838 | 1.21 | 1.19 | 1.13 | 1.09 | 0.258 | 0.203 | 0.28 | 0.234 | 0.29 | 0.296 | 0.316 | 0.265 | 0.469 | 0.426 | 0.411 | 0.451 | 1.07 | 0.989 | 0.868 | 0.926
11 | NCI-H1355 | 0.969 | 0.987 | 0.861 | 0.921 | 0.587 | 0.616 | 0.509 | 0.515 | 0.728 | 0.717 | 0.701 | 0.725 | 0.325 | 0.331 | 0.382 | 0.339 | 0.996 | 1.01 | 0.963 | 0.937
12 | NCI-H1395 | 1.1 | 1.34 | 1.13 | 1.73 | 0.697 | 0.693 | 0.722 | 0.65 | 0.395 | 0.392 | 0.405 | 0.405 | 0.698 | 0.75 | 0.707 | 0.609 | 1.01 | 0.868 | 0.952 | 0.991
13 | NCI-H1437 | 1.12 | 1.09 | 1.07 | 1.12 | 0.378 | 0.42 | 0.374 | 0.411 | 0.404 | 0.367 | 0.464 | 0.418 | 0.654 | 0.578 | 0.591 | 0.509 | 1.23 | 1.21 | 1.19 | 1.21
14 | NCI-H1650 | 1.1 | 1.25 | 1.1 | 1.19 | 0.394 | 0.404 | 0.38 | 0.342 | 0.279 | 0.264 | 0.308 | 0.329 | 0.351 | 0.404 | 0.43 | 0.401 | 0.913 | 1.15 | 0.955 | 1.12
15 | NCI-H1651 | 0.996 | 1.27 | 0.969 | 1.03 | 0.622 | 0.586 | 0.631 | 0.508 | 0.454 | 0.465 | 0.357 | 0.381 | 0.534 | 0.585 | 0.582 | 0.386 | 0.921 | 0.838 | 0.656 | 0.772
16 | NCI-H1666 | 0.991 | 0.942 | 0.645 | 0.867 |  | 0.608 | 0.584 | 0.618 |  | 0.828 | 0.877 | 0.762 | 0.615 | 0.688 | 0.728 | 0.68 |  | 0.857 | 0.948 | 1.04
17 | NCI-H1734 | 0.737 | 0.813 | 0.778 | 0.888 | 0.373 | 0.278 | 0.233 | 0.25 | 0.437 | 0.459 | 0.425 | 0.453 | 0.499 | 0.488 | 0.502 | 0.565 | 0.835 | 0.764 | 0.745 | 1.01
18 | NCI-H1755 | 1.03 | 0.936 | 0.98 | 0.938 | 0.567 | 0.515 | 0.514 | 0.528 | 0.411 | 0.506 | 0.459 | 0.45 | 0.771 | 0.743 | 0.704 | 0.652 | 0.974 | 0.887 | 0.914 | 0.875
19 | NCI-H1793 | 0.701 | 0.385 |  | 0.404 |  | 0.375 | 0.265 | 0.298 |  | 0.434 | 0.32 | 0.419 | 0.527 | 0.6 | 0.531 | 0.546 |  | 0.612 | 0.575 | 0.679
20 | NCI-H1915 | 0.738 | 0.799 | 0.752 | 0.711 | 0.451 | 0.33 | 0.393 | 0.416 | 0.294 | 0.307 | 0.312 | 0.285 | 0.243 | 0.261 | 0.252 | 0.249 | 1.05 | 1.09 | 1.11 | 1.04
21 | NCI-H1944 | 1.02 | 1.04 | 0.978 | 1.02 | 0.26 | 0.266 | 0.247 | 0.279 | 0.22 | 0.217 | 0.213 | 0.217 | 0.485 | 0.423 | 0.393 | 0.434 | 0.976 | 0.91 | 0.843 | 0.949
22 | NCI-H1975 | 1.31 | 1.06 | 1.19 | 1.02 | 0.738 | 0.737 | 0.608 | 0.331 | 0.381 | 0.341 | 0.356 | 0.268 | 0.352 | 0.401 | 0.388 | 0.365 | 1.02 | 0.916 | 0.895 | 0.951
23 | NCI-H1993 | 0.994 | 0.875 | 0.797 | 0.757 | 0.6 | 0.569 | 0.537 | 0.512 | 0.511 | 0.49 | 0.477 | 0.497 | 0.677 | 0.586 | 0.555 | 0.701 | 0.819 | 0.751 | 0.625 | 0.822
24 | NCI-H2009 | 1.15 | 1.14 | 1.11 | 1.08 | 0.732 | 0.751 | 0.697 | 0.809 | 0.289 | 0.291 | 0.275 | 0.259 | 0.385 | 0.409 | 0.394 | 0.379 | 1.2 | 1.18 | 1.2 | 1.12
25 | NCI-H2023 | 0.946 | 1.02 | 0.955 | 0.95 | 0.402 | 0.32 | 0.241 | 0.233 | 0.629 | 0.478 | 0.546 | 0.55 | 0.214 | 0.223 | 0.209 | 0.215 | 0.756 | 0.743 | 0.845 | 0.848
26 | NCI-H2085 | 1.15 | 1.1 | 1.2 | 0.997 | 0.85 | 0.726 | 0.867 | 0.613 | 0.224 | 0.259 | 0.227 | 0.23 | 0.566 | 0.522 | 0.563 | 0.524 | 0.992 | 0.874 | 0.834 | 0.947
27 | NCI-H2087 | 0.94 | 1.11 | 0.994 | 0.941 | 0.258 | 0.249 | 0.214 | 0.266 | 0.746 | 0.829 | 0.818 | 0.753 | 0.324 | 0.251 | 0.297 | 0.298 | 1.04 | 1.25 | 1.08 | 1.12
